Columns and labels:
Assay type in all cases: biochemical
Lck (h) = Lck (h) (Homo sapiens, UniProt P06239); test: Kinase profiling, glass-fiber filter technology: Lck; conditions: test concentration of 10^−6 M; read-out: Lck inhibition score
Description: (§1) The in vitro inhibition of a panel of kinases was assessed using the glass-fiber filter technology as described by Davies, S. P. et al., Biochem J. (2000), 351; p. 95-105.
(§2) In the glass-fiber filter technology the activity of the kinase of interest is measured using an appropriate substrate that is incubated with the aforementioned kinase protein in the presence of (^33P) radiolabeled ATP. (^33P) Phosporylation of the substrate is subsequently measured as radioactivity bound on a glassfiber-filter.
(§3) All kinases are pre-diluted to a 10× working concentration prior to addition into the assay. The composition of the dilution buffer for each kinase is detailed below.
(§4) All substrates are dissolved and diluted to working stocks in de-ionised water.
(§5) In a final reaction volume of 25 μl, Lck (h) (5-10 mU) is incubated with 50 mM Tris pH 7.5, 0.1 mM EGTA, 0.1 mM Na3VO4, 250 μM KVEKIGEGTYGVVYK (Cdc2 peptide), 10 mM MgAcetate and [γ-^33P-ATP] (specific activity approx. 500 cpm/pmol, concentration as required). The reaction is initiated by the addition of the MgATP mix. After incubation for 40 minutes at room temperature, the reaction is stopped by the addition of 5 μl of a 3% phosphoric acid solution.
(§6) 10 μl of the reaction is then spotted onto a P30 filtermat and washed three times for 5 minutes in 75 mM phosphoric acid and once in methanol prior to drying and scintillation counting.

Lyn (h) = Lyn (h) (Homo sapiens, UniProt P07948); test: Kinase profiling, glass-fiber filter technology: Lyn; conditions: test concentration of 10^−6 M; read-out: Lyn inhibition score
Description: as §1, §2, §3, §4
as §5, with “Lyn” for “Lck”, “0.1% β-mercaptoethanol, 0.1 mg/ml poly(Glu, Tyr) 4:1,” for “250 μM KVEKIGEGTYGVVYK (Cdc2 peptide),”, “solution. 10 μl of the reaction is then spotted onto a Filtermat A and washed three times for 5 minutes in 75 mM phosphoric acid and once in methanol prior to drying and scintillation counting.” for “solution.”

Blk (m) = Blk (m) (Mus musculus, UniProt P16277); test: Kinase profiling, glass-fiber filter technology: Blk; conditions: test concentration of 10^−6 M; read-out: Blkl inhibition score
Description: as §1, §2, §3, §4
(§7) In a final reaction volume of 25 μl, Blk (m) (5-10 mU) is incubated with 50 mM Tris pH 7.5, 0.1 mM EGTA, 0.1 mM Na3VO4, 0.1% β-mercaptoethanol, 0.1 mg/ml poly(Glu, Tyr) 4:1, 10 mM MgAcetate and [γ-33P-ATP] (specific activity approx. 500 cpm/pmol, concentration as required). The reaction is initiated by the addition of the MgATP mix. After incubation for 40 minutes at room temperature, the reaction is stopped by the addition of 5 μl of a 3% phosphoric acid solution. 10 μl of the reaction is then spotted onto a Filtermat A and washed three times for 5 minutes in 75 mM phosphoric acid and once in methanol prior to drying and scintillation counting.

EGFR (h) = EGFR (h) (Homo sapiens, UniProt P00533); test: Kinase profiling, glass-fiber filter technology: EGFR; conditions: test concentration of 10^−6 M; read-out: EGFR inhibition score
Chain of EGFR (h) (P00533 25-1210): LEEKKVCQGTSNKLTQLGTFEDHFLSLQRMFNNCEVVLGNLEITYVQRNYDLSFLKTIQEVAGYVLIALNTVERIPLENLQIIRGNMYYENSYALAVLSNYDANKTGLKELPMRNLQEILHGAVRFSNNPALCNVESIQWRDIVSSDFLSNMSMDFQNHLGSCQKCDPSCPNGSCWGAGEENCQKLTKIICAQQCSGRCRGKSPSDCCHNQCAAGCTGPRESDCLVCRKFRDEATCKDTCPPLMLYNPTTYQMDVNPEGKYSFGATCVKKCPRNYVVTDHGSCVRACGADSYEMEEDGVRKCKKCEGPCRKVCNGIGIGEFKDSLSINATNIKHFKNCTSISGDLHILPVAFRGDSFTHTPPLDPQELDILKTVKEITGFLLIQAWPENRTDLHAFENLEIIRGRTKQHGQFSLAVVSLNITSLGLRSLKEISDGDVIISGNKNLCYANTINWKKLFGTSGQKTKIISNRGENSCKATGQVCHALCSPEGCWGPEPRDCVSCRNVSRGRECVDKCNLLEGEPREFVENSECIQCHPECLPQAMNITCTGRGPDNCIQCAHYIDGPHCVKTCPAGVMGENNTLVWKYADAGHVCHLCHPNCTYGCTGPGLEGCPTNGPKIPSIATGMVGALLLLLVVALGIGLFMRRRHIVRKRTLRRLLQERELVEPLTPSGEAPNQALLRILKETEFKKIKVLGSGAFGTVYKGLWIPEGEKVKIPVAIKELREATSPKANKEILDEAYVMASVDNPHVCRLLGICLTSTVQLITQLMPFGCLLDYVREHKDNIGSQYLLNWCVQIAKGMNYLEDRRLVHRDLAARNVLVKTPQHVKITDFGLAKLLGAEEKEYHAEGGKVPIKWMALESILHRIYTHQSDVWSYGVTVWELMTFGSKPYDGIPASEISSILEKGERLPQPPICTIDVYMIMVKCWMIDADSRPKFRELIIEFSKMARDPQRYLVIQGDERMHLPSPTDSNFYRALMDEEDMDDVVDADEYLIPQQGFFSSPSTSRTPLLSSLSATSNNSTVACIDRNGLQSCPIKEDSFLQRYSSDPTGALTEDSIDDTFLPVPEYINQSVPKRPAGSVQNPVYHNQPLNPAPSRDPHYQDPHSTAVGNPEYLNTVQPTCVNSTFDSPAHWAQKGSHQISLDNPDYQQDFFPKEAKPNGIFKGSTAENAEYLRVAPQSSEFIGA
Description: as §1, §2, §3, §4
(§8) In a final reaction volume of 25 μl, EGFR (h) (5-10 mU) is incubated with 8 mM MOPS pH 7.0, 0.2 mM EDTA, 10 mM MnCl2, 0.1 mg/ml poly(Glu, Tyr) 4:1, 10 mM MgAcetate and [γ-^33P-ATP] (specific activity approx. 500 cpm/pmol, concentration as required). The reaction is initiated by the addition of the MgATP mix. After incubation for 40 minutes at room temperature, the reaction is stopped by the addition of 5 μl of a 3% phosphoric acid solution. 10 μl of the reaction is then spotted onto a Filtermat A and washed three times for 5 minutes in 75 mM phosphoric acid and once in methanol prior to drying and scintillation counting.

Yes (h) = Yes (h) (Homo sapiens, UniProt P07947); test: Kinase profiling, glass-fiber filter technology: Yes; conditions: test concentration of 10^−6 M; read-out: Yes inhibition score
Chain of Yes (h) (P07947 whole entry): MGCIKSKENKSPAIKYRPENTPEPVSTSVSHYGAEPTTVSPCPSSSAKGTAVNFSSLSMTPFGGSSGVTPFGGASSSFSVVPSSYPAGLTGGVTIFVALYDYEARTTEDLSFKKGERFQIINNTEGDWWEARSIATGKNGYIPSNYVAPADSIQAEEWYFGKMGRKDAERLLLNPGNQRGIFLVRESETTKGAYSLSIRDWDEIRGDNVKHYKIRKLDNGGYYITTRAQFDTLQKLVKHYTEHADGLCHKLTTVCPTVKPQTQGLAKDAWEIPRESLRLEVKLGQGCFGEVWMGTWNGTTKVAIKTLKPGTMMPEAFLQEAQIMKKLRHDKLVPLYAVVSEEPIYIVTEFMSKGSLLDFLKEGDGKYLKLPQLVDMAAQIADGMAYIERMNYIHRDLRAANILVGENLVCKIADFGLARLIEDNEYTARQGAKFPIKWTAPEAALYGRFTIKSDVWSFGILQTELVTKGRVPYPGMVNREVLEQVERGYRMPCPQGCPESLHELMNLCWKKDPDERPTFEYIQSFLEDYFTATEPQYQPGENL
Description: as §1, §2, §3, §4
as §8, with “Yes” for “EGFR”, “EDTA,” for “EDTA, 10 mM MnCl2,”

cSRC (h) = cSRC (h) (Homo sapiens, UniProt P12931); test: Kinase profiling, glass-fiber filter technology: cSRC; conditions: test concentration of 10^−6 M; read-out: cSRC inhibition score
Chain of cSRC (h) (P12931 whole entry): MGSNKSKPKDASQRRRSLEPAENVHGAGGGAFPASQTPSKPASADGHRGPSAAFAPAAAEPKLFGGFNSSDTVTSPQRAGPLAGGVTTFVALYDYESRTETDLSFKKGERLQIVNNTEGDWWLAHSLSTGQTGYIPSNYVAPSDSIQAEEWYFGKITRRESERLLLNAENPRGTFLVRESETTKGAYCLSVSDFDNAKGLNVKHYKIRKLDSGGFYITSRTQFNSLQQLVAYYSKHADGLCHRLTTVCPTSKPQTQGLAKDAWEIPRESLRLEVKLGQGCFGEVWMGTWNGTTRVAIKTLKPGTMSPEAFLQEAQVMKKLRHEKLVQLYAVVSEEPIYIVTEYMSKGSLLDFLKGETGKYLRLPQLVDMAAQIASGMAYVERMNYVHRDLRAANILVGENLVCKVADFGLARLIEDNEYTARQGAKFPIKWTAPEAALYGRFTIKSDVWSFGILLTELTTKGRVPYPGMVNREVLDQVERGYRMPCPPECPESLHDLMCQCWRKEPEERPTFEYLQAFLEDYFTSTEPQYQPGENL
Description: as §1, §2, §3, §4
as §5, with “μl, cSRC” for “μl, Lck”, “with 8” for “with 50”, “mM MOPS” for “mM Tris”, “pH 7.0, 0.2” for “pH 7.5, 0.1”, “mM EDTA,” for “mM EGTA, 0.1 mM Na3VO4,”
as §6

Ret human = Ret human (Homo sapiens, UniProt P07949); test: Kinase profiling, glass-fiber filter technology: Ret; conditions: test concentration of 10^−6 M; read-out: Ret inhibition score
Description: as §1, §2, §3, §4
as §8, with “Ret human” for “EGFR (h)”, “250 μM KKKSPGEYVNIEFG,” for “10 mM MnCl2, 0.1 mg/ml poly(Glu, Tyr) 4:1,”, “P30 filtermat” for “Filtermat A”

Fyn human = Fyn human (Homo sapiens, UniProt P06241); test: Kinase profiling, glass-fiber filter technology: Fyn; conditions: test concentration of 10^−6 M; read-out: Fyn inhibition score
Chain of Fyn human (P06241 whole entry): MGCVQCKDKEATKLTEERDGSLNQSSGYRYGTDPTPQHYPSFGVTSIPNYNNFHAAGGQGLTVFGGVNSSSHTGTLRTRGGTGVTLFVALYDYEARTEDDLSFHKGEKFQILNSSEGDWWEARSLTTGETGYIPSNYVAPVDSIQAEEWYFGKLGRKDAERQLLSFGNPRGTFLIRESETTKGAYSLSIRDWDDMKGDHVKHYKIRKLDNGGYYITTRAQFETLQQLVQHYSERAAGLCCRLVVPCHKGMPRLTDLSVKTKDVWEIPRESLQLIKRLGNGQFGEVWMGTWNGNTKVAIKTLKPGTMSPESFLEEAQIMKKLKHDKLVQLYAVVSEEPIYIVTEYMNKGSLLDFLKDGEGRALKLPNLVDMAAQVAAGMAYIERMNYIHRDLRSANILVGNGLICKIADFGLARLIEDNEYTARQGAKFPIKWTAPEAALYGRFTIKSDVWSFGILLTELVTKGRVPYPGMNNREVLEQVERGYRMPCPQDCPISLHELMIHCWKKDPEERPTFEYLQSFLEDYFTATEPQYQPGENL
Description: as §1, §2, §3, §4
as §7, with “Fyn human” for “Blk (m)”, “250 μM KVEKIGEGTYGVVYK (Cdc2 peptide),” for “0.1% β-mercaptoethanol, 0.1 mg/ml poly(Glu, Tyr) 4:1,”, “[γ-^33P-ATP]” for “[γ-33P-ATP]”, “P30 filtermat” for “Filtermat A”

ErbB4 (h) = ErbB4 (h) (Homo sapiens, UniProt Q15303); test: Kinase profiling, glass-fiber filter technology: ErbB4; conditions: test concentration of 10^−6 M; read-out: ErbB4 inhibition score
Chain of ErbB4 (h) (Q15303 26-1308): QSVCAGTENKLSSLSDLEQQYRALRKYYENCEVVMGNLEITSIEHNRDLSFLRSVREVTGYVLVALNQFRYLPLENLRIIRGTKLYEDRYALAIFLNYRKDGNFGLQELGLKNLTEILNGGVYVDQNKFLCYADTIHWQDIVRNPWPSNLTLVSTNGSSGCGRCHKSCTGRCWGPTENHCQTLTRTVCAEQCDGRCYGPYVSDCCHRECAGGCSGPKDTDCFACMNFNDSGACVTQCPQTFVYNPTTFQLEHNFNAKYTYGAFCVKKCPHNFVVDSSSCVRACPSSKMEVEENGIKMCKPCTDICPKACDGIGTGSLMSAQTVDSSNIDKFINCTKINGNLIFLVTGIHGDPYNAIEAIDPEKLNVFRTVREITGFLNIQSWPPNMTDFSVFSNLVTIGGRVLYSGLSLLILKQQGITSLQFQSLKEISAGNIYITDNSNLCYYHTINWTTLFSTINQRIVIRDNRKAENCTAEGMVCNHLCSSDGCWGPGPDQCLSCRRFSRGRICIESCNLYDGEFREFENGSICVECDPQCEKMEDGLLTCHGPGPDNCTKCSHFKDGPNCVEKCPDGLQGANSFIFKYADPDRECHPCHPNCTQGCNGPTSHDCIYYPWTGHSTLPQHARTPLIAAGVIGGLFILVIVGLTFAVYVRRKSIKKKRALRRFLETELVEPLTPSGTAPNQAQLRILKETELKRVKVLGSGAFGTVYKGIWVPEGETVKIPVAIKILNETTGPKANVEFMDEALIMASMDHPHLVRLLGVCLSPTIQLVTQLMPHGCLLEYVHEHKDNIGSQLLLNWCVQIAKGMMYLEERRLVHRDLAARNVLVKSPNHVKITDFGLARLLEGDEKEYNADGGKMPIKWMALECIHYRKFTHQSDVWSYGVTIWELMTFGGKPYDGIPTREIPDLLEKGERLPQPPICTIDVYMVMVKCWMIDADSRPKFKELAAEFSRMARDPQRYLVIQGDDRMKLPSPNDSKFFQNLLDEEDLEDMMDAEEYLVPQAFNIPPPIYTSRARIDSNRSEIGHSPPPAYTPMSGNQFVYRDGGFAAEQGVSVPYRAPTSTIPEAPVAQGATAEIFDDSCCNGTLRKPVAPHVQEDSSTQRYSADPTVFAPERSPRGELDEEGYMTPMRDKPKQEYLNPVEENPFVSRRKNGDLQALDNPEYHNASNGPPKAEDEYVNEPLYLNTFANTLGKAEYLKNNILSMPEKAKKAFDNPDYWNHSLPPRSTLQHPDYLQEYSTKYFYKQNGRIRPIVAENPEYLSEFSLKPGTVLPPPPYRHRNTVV
Description: as §1, §2, §3, §4
as §8, with “ErbB4” for “EGFR”, “[γ-33P-ATP]” for “[γ-^33P-ATP]”

Abl (h) = Abl (h) (Homo sapiens, UniProt P00519); test: Kinase profiling, glass-fiber filter technology: Abl; conditions: test concentration of 10^−6 M; read-out: Abl inhibition score
Description: as §1, §2, §3, §4
as §8, with “Abl” for “EGFR”, “50 μM EAIYAAPFAKKK,” for “10 mM MnCl2, 0.1 mg/ml poly(Glu, Tyr) 4:1,”, “P30 filtermat” for “Filtermat A”

Chain of Lck (h) (P06239 whole entry): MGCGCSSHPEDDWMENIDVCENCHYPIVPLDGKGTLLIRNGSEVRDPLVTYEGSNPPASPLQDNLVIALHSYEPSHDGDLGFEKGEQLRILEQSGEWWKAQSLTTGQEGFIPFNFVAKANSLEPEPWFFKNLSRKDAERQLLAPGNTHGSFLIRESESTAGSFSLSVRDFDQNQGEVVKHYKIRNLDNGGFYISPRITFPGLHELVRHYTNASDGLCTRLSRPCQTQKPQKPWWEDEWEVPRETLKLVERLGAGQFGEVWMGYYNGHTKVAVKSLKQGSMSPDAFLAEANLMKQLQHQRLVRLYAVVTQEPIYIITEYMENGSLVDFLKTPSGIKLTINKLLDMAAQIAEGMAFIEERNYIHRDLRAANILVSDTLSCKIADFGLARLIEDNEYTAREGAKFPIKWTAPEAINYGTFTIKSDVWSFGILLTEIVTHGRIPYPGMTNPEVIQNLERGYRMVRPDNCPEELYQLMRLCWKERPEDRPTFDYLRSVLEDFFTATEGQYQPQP

SMILES	inhibition at 1 µM (Lck (h))	inhibition at 1 µM (Lyn (h))	inhibition at 1 µM (Blk (m))	inhibition at 1 µM (EGFR (h))	inhibition at 1 µM (Yes (h))	inhibition at 1 µM (cSRC (h))	inhibition at 1 µM (Ret human)	inhibition at 1 µM (Fyn human)	inhibition at 1 µM (ErbB4 (h))	inhibition at 1 µM (Abl (h))
COc1cc2ncnc3c2cc1OCCN(CCN1CCOCC1)C(=O)CNC(=O)Cc1ccc(Cl)cc1N3 [Compound 1]	10 to 30%	30 to 60%	30 to 60%	> 80%	30 to 60%	60 to 80%	–	–	–	–
COc1cc2ncnc3c2cc1OCCCNC(=O)[C@H](CC1CCCCC1)NC(=O)CCc1ccc(Cl)cc1N3 [Compound 8]	> 80%	–	–	> 80%	> 80%	> 80%	> 80%	60 to 80%	60 to 80%	10 to 30%
